Test results: patent US7067619B2, “Integrin-binding peptides” (La Jolla Cancer Research Foundation, priority 1993, dated 2006)

Biological target: T1, α5β1 integrin (Mus musculus, UniProt P09055+P11688)
T1 construct: CHO cells C11 and NIH 3T3 cells express the endogenous Chinese hamster and mouse α5β1 integrins, respectively; endogenous in cells; host or cells: NIH 3T3 cells
Assay: Inhibition of attachment of NIH 3T3 cells to fibronectin
Type: cell-based
Settings: mouse NIH 3T3 cells
Excerpt: Cell lines expressing different integrins were used to examine peptide inhibition of integrin function. A human melanoma cell line, C8161, a fibroblast cell line, WI-38, and an osteosarcoma cell line, MG-63 (described by Seftor et al., Canc. Res., 53:3411–3415 (1993); Vogel et al., J. Biol. Chem., 265:5934–5937 (1990); and Pytela et al. (1985), supra, respectively, each of which is incorporated herein by reference) attach to fibronectin through α5β1 integrin, as does B2/α27, a CHO cell line transfected with human α5. B2/C1, the control parental CHO line (Bauer et al., J. Cell. Biol. 116:477–487 (1992), which is incorporated herein by reference), attaches via […]. CHO cells C11 and NIH 3T3 cells express the endogenous Chinese hamster and mouse α5β1 integrins, respectively. The human melanoma cells, A375-M, attach to fibronectin through both α5β1 and α4β1 integrins (Mould et al., J. Biol. Chem. 265:4020–4024 (1990), which is incorporated herein by reference). CHO cell line B2/v7 express the αvβ1 integrin (Zhang et al., J. Cell. Biol. 122:235–242 (1993), which is incorporated herein by reference). […]
Cell lines expressing fibronectin-binding integrins were used to determine peptide activities against these integrins in the cell attachment assay described by Ruoslahti et al., Meth. […] Bound cells were quantitated by staining with 0.1% amido black.

T1 sequence (P11688 45-898 limits assumed): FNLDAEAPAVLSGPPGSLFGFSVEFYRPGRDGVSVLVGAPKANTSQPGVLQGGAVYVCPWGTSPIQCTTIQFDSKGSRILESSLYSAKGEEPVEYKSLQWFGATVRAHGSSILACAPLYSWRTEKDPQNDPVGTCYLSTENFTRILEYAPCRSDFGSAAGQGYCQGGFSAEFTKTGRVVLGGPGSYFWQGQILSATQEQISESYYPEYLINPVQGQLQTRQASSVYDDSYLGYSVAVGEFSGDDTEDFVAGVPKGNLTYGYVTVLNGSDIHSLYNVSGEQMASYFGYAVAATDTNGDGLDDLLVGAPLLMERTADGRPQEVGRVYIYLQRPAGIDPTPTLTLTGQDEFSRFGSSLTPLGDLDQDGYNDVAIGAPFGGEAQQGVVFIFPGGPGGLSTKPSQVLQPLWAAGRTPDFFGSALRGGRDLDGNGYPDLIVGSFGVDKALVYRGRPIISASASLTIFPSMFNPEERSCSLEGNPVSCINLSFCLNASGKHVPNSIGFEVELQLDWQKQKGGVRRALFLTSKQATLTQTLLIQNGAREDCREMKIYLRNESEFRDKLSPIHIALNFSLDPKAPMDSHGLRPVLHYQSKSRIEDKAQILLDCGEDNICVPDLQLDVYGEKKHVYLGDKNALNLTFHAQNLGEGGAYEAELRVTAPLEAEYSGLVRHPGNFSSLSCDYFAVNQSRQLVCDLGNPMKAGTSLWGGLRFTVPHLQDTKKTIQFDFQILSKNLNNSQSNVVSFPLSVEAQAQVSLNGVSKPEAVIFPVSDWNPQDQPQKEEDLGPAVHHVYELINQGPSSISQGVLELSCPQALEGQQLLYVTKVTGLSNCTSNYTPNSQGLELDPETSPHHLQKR
T1 sequence (P11688 899-1053 partner limits assumed): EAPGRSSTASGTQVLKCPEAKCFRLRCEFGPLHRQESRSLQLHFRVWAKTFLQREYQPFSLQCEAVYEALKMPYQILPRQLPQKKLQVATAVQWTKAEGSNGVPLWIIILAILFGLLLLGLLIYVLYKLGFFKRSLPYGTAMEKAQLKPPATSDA
T1 sequence (P09055 21-798): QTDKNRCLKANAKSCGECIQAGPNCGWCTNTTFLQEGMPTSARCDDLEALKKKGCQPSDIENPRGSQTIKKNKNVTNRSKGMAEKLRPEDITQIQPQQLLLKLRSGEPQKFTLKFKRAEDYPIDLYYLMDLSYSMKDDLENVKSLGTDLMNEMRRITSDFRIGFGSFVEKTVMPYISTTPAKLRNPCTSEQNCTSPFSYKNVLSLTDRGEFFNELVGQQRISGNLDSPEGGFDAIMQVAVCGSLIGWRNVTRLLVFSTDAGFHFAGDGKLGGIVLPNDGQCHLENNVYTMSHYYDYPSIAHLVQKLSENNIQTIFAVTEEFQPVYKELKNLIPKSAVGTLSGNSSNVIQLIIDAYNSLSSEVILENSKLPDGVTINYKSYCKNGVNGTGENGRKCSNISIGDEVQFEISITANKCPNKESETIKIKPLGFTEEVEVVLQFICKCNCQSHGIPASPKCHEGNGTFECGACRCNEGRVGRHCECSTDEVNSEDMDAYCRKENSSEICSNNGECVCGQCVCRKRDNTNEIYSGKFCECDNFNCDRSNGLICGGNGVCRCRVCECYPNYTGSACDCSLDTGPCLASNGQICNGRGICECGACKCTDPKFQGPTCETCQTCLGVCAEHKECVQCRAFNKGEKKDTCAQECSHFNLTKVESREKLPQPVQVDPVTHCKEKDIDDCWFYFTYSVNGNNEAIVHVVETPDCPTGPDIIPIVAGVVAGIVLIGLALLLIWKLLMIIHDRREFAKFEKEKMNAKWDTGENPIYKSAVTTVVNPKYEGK

GACRRETAWACGA
blocking of attachment of NIH 3T3 cells to fibronectin: could not block
